Like-named read-outs stand apart in the source and are kept apart here.
Tested on: Mycosphaerella graminicola; Anamorph: Septoria tritici; Bayer Code SEPTTR
Assay: Leaf blotch of wheat, foliar fungicide treatment, one day protectant (1DP) or three day curative (3DC)
Type: in vivo, Septoria tritici on wheat plants (variety Yuma)
Details: Zymoseptoria tritici, rating of percent disease control
[1] = 24 h, one day protectant (1DP), read-out: SETTTR 1DP 25 ppm
[2] = 24 h, one day protectant (1DP), read-out: SEPTTR 1DP 100 ppm
[3] = 72 h, three day curative (3DC), read-out: SEPTTR 3DC 25 ppm
[4] = 72 h, three day curative (3DC), read-out: SEPTTR 3DC 100 ppm

SMILES	pest or weed control at 25 ppm [1]	pest or weed control at 100 ppm [2]	pest or weed control at 25 ppm [3]	pest or weed control at 100 ppm [4]
NNc1nc(OCc2ccccc2)ncc1F [Compound 258]	51 to 75%	76 to 100%	26 to 50%	51 to 75%
CC(=O)OCNc1nc(OCc2ccc(F)cc2)ncc1F [Compound 259]	51 to 75%	76 to 100%	76 to 100%	76 to 100%
CN1CCCC/C1=N\c1nc(OCc2cccc(C#N)c2)ncc1F [Compound 261]	51 to 75%	76 to 100%	51 to 75%	76 to 100%
O=C(Nc1nc(OCc2ccc(F)cc2)ncc1F)OCCl [Compound 262]	51 to 75%	76 to 100%	76 to 100%	76 to 100%
COc1ccc(S(=O)(=O)Oc2ncc(F)c(/N=C/N(C)C)n2)cc1 [Compound 264]	51 to 75%	76 to 100%	76 to 100%	76 to 100%
Fc1cccc(COc2ncc(F)c(NC(=S)Nc3ccccc3F)n2)c1 [Compound 266]	76 to 100%	76 to 100%	0 to 25%	76 to 100%
CC(C)Oc1ncc(F)c(N)n1 [Compound 267]	0 to 25%	0 to 25%	0 to 25%	0 to 25%
COc1cccc(COc2ncc(F)c(OC)n2)c1 [Compound 269]	0 to 25%	0 to 25%	0 to 25%	0 to 25%
COCCOC(=O)Nc1nc(OCc2cccc(F)c2)ncc1F [Compound 273]	51 to 75%	76 to 100%	76 to 100%	76 to 100%
CN1CCC/C1=N\c1nc(OCc2ccc(F)cc2)ncc1F [Compound 274]	76 to 100%	76 to 100%	76 to 100%	76 to 100%
Nc1nc(OCc2cscn2)ncc1F [Compound 275]	76 to 100%	76 to 100%	76 to 100%	76 to 100%
CCOC(=O)Nc1nc(OCc2cccc(OC)c2)ncc1F [Compound 276]	76 to 100%	76 to 100%	76 to 100%	76 to 100%
CC[Si](CC)(CC)Nc1nc(OCCCOC)ncc1F [Compound 279]	51 to 75%	76 to 100%	76 to 100%	76 to 100%
COCCOC(=O)Nc1nc(OCc2ccc(F)cc2)ncc1F [Compound 280]	76 to 100%	76 to 100%	76 to 100%	76 to 100%
Fc1cnc(OCc2ccccc2)nc1NNc1ccccc1 [Compound 282]	0 to 25%	26 to 50%	26 to 50%	51 to 75%
O=[N+]([O-])c1ccccc1NNc1nc(OCc2ccc(Cl)c(Cl)c2)ncc1F [Compound 283]	51 to 75%	76 to 100%	0 to 25%	26 to 50%
Nc1nc(OCc2ccc(O)cc2)ncc1F [Compound 284]	0 to 25%	0 to 25%	0 to 25%	0 to 25%
C/C=C(C)/C=N/Nc1nc(OCc2cccc(OC)c2)ncc1F [Compound 285]	51 to 75%	76 to 100%	26 to 50%	26 to 50%
CCc1ccccc1COc1ncc(F)c(N)n1 [Compound 286]	76 to 100%	76 to 100%	51 to 75%	76 to 100%
CCCCCNC(=S)Nc1nc(OCc2ccc(C)cc2)ncc1F [Compound 287]	76 to 100%	76 to 100%	76 to 100%	76 to 100%
Nc1nc(OCc2ccc(F)cc2F)ncc1F [Compound 289]	76 to 100%	76 to 100%	76 to 100%	76 to 100%
O=C(Nc1ccccc1F)Nc1nc(OCc2ccccc2)ncc1F [Compound 291]	0 to 25%	0 to 25%	0 to 25%	26 to 50%
CN(/C=N/c1nc(OCc2ccc(F)cc2)ncc1F)Cc1ccccc1 [Compound 292]	76 to 100%	76 to 100%	76 to 100%	76 to 100%

SMILES	pest or weed control at 25 ppm [1]	pest or weed control at 100 ppm [2]	pest or weed control at 25 ppm [3]	pest or weed control at 100 ppm [4]
O=C(NNc1nc(OCc2ccccc2)ncc1F)c1ccccc1 [Compound 293]	0 to 25%	0 to 25%	0 to 25%	0 to 25%
COc1cccc(COc2ncc(F)c(NNC3CCCCC3)n2)c1 [Compound 294]	0 to 25%	76 to 100%	0 to 25%	76 to 100%
CCOC(=O)COC(=O)Nc1nc(OCc2ccc(F)cc2)ncc1F [Compound 295]	76 to 100%	76 to 100%	76 to 100%	76 to 100%
Cc1cc(Oc2ncc(F)c(N)n2)cc(C)n1 [Compound 296]	0 to 25%	0 to 25%	0 to 25%	26 to 50%
O=C(Nc1nc(OCc2ccccc2)ncc1F)OCc1ccccc1 [Compound 298]	76 to 100%	76 to 100%	76 to 100%	76 to 100%
COc1ccccc1COc1ncc(F)c(N)n1 [Compound 300]	76 to 100%	76 to 100%	76 to 100%	76 to 100%
C/C(=N\Nc1nc(OCc2ccc(C)cc2)ncc1F)c1ccc(Cl)nc1 [Compound 301]	26 to 50%	26 to 50%	51 to 75%	76 to 100%
CN(C)/C=N/c1nc(OCc2cccc(N)c2)ncc1F [Compound 303]	26 to 50%	76 to 100%	51 to 75%	76 to 100%
COc1cccc(COc2ncc(F)c(NNc3ccccc3)n2)c1 [Compound 306]	0 to 25%	76 to 100%	26 to 50%	26 to 50%
Nc1nc(OCc2cn3ccccc3n2)ncc1F [Compound 307]	76 to 100%	76 to 100%	76 to 100%	76 to 100%
Nc1nc(OCc2ccnc(Cl)c2)ncc1F [Compound 308]	76 to 100%	76 to 100%	76 to 100%	76 to 100%
COc1ccccc1COc1ncc(F)c(NC(C)=O)n1 [Compound 309]	76 to 100%	76 to 100%	76 to 100%	76 to 100%
Nc1nc(ON=C(c2ccccc2)c2ccccc2)ncc1F [Compound 312]	76 to 100%	76 to 100%	76 to 100%	76 to 100%
CCOC(=O)Nc1nc(OCc2cccc(C#N)c2)ncc1F [Compound 314]	76 to 100%	76 to 100%	76 to 100%	76 to 100%
COCCCOc1ncc(F)c(N)n1 [Compound 315]	51 to 75%	76 to 100%	76 to 100%	76 to 100%
COc1ccccc1COc1ncc(F)c(/N=C2\CCCCN2C)n1 [Compound 317]	51 to 75%	76 to 100%	26 to 50%	76 to 100%
Cn1nc(-c2ccccc2)nc1-c1ccccc1COc1ncc(F)c(N)n1 [Compound 320]	0 to 25%	0 to 25%	26 to 50%	26 to 50%
COCCCOc1ncc(F)c(NC(C)=O)n1 [Compound 321]	76 to 100%	76 to 100%	76 to 100%	76 to 100%
Oc1ncc(F)c(N/N=C/c2ccccc2Cl)n1 [Compound 322]	0 to 25%	0 to 25%	0 to 25%	0 to 25%
Cc1ccc(COc2ncc(F)c(N)n2)c(C)c1 [Compound 323]	76 to 100%	76 to 100%	76 to 100%	76 to 100%
O=[N+]([O-])c1ccccc1SNc1nc(OCc2ccc(F)c(F)c2)ncc1F [Compound 324]	76 to 100%	76 to 100%	0 to 25%	26 to 50%
Cc1ccc(COc2ncc(F)c(NO)n2)cc1 [Compound 325]	76 to 100%	76 to 100%	76 to 100%	76 to 100%
